Test results from US8440794B2, “Peptide sequences, their branched form and use thereof for antimicrobial applications” (Universita' Degli Studi di Siena, priority 2008, dated 2013).
Values after ≈ are worked out from the molar mass of the structure shown. Where a SMILES comes first, the peptide text is derived from it. Bridges are numbered along the chain shown (N, C = ends). Roman numbers before positions name the chains, in order. [ ]: non-standard residue; d: D form. βAla = NCCC(=O)O

Columns and labels:
[1] = tested on: P. aeruginosa AV65; assay type: cell-based, Pseudomonas aeruginosa; settings: AV65, 24 h
[2] = tested on: P. aeruginosa PAO-1; assay type: cell-based, Pseudomonas aeruginosa; settings: PAO-1, 24 h
[3] = tested on: P. aeruginosa SC-BGr12-02; assay type: cell-based, Pseudomonas aeruginosa; settings: SC-BGr12-02, 24 h
[4] = tested on: P. aeruginosa SC-CNm03-07; assay type: cell-based, Pseudomonas aeruginosa; settings: SC-CNm03-07, 24 h
[5] = tested on: P. aeruginosa SC-GMm03-05; assay type: cell-based, Pseudomonas aeruginosa; settings: SC-GMm03-05, 24 h
[6] = tested on: P. aeruginosa SC-MDm03-02; assay type: cell-based, Pseudomonas aeruginosa; settings: SC-MDm03-02, 24 h
[7] = tested on: P. aeruginosa SC-VMr04-05; assay type: cell-based, Pseudomonas aeruginosa; settings: SC-VMr04-05, 24 h
[8] = tested on: P. aeruginosa VR-143/97; assay type: cell-based, Pseudomonas aeruginosa; settings: VR-143/97, 24 h
[9] = tested on: Acinetobacter baumannii RUH 134; assay type: cell-based; settings: RUH 134, 24 h
[10] = tested on: Burkholderia cepacia ORB-99; assay type: cell-based; settings: 24 h
[11] = tested on: Enterobacter cloacae W03AN0041; assay type: cell-based; settings: W03AN0041, 24 h
[12] = tested on: Escherichia coli ATCC 25922; assay type: cell-based; settings: ATCC 25922, 24 h
[13] = tested on: Staphylococcus aureus ATCC 29213; assay type: cell-based; settings: ATCC 29213, 24 h
[14] = tested on: E. coli TG1; test: Antibacterial activity against E. coli TG1 cells (CFU count after 75 min incubation, FIG. 1A); assay type: cell-based; settings: 75 minutes at 37° C., CFU counted
Excerpt: FIG. 1. A, Antibacterial activity against E. coli TG1 cells. Comparison of the following tetra-branched peptides: M6 batch 1 synthesis (triangles), M6 batch 2 synthesis (squares), M6 batch 3 synthesis (white circles), which contain a mixture of Gln and pyroGlu (in unknown percentages) as first amino-acid, […] (asterisks), where the first amino-acid is 100% pyroGlu, and M33 (black circles), in which the first Gln was deleted. […] SD derived by means of three different experiments. Many different syntheses of M33 (and also of M34, M35 and M36, here not shown) gave perfectly overlapping results without any wavering outcome. B, Mass spectrometry analysis of tetra-branched peptide M6 crude mixture. Calculated molecular mass of M6 was 5195 Da. Two main peaks are present, one at 5197 Da corresponding to unmodified M6 and one at 5179 Da that corresponds to the secondary product with one pyroGlu in first position in the place of one of the four Gln. C, Mass spectrometry analysis of tetrabranched peptide M33 after 24 hours of incubation in serum. The peptide appears as a single peak at the expected molecular mass (4683 Da).
A single colony of E. coli TG1 strain was cultured in 2×TY medium to 0.2 OD^600. […] The following day colonies (CFU/ml) grown on plates were counted.

[15] = tested on: P. aeruginosa ATCC 27853; test: In vivo antibacterial activity, mice infected ip with lethal amount of P. aeruginosa ATCC 27853; parameters: species or system Balb-c mice; settings: for Animals protected from death: P. aeruginosa ATCC 27853 1×10^7 CFU ip
Procedure: FIG. 4. In vivo antibacterial activity of tetra-branched M33 peptide. A, Balb-c mice (20 g) were intra-peritoneally injected with a lethal amount of E. coli TG1 cells (1.5×10^9 CFU). Continuous line (Ctr) indicates mice only injected ip with bacteria and no M33. Broken line indicates mice injected ip with bacteria and a single injection of M33 peptide 10 mg/Kg 30 minutes later. B, Balb-c mice (20 g) were intra-peritoneally injected with a lethal amount of P. aeruginosa cells (ATCC 27853 1×10^7 CFU). Continuous line (Ctr) indicates mice which only received bacteria; other groups received bacteria and a single dose of M33 30 minutes later (see figure for doses of M33). C, Balb-c mice (20 g) were intra-peritoneally injected with a lethal amount of P. aeruginosa cells (multi drug resistant VR 147 clinical isolate, 1.5×10^7 CFU). Continuous line (Ctr) indicates mice which only received bacteria; broken line indicates mice which received bacteria and a single dose of M33 25 mg/Kg. D, Balb-c mice (20 g) were intra-peritoneally injected with a lethal amount of P. aeruginosa cells (ATCC 27853 1×10^7 CFU). Continuous line (Ctr) indicates mice which only received bacteria; long broken line, mice receiving bacteria and two injections of M33 (5 mg/Kg×2), 30 minutes and 12 hours after bacteria; short broken line, mice receiving bacteria and three injections of M33 (5 mg/Kg×3), 30 minutes, 12 and 24 hours after bacteria. P<0.05.
Tetra-branched M33 peptide was analysed for its antibacterial activity in mice infected with lethal amounts of bacteria. Two different bacterial species were used, Escherichia coli and Pseudomonas aeruginosa. […] Balb-c mice were infected with the LD100 of bacteria and treated 30 minutes later with the peptide by ip administration.

[16] = assay type: in vivo; settings: animals treated ip with 100 mg/Kg (not shown)

In the case of CC[C@H](C)[C@H](NC(=O)[C@H](CCCCN)NC(=O)[C@@H](N)CCCCN)C(=O)N[C@@H](CCCNC(=N)N)C(=O)N[C@H](C(=O)N[C@@H](CCCNC(=N)N)C(=O)N[C@@H](CC(C)C)C(=O)N[C@@H](CO)C(=O)N[C@@H](C)C(=O)NCCCC[C@H](NC(=O)[C@H](C)NC(=O)[C@H](CO)NC(=O)[C@H](CC(C)C)NC(=O)[C@H](CCCNC(=N)N)NC(=O)[C@@H](NC(=O)[C@H](CCCNC(=N)N)NC(=O)[C@@H](NC(=O)[C@H](CCCCN)NC(=O)[C@@H](N)CCCCN)[C@@H](C)CC)C(C)C)C(=O)NCCCC[C@H](NC(=O)[C@H](CCCCNC(=O)[C@H](C)NC(=O)[C@H](CO)NC(=O)[C@H](CC(C)C)NC(=O)[C@H](CCCNC(=N)N)NC(=O)[C@@H](NC(=O)[C@H](CCCNC(=N)N)NC(=O)[C@@H](NC(=O)[C@H](CCCCN)NC(=O)[C@@H](N)CCCCN)[C@@H](C)CC)C(C)C)NC(=O)[C@H](C)NC(=O)[C@H](CO)NC(=O)[C@H](CC(C)C)NC(=O)[C@H](CCCNC(=N)N)NC(=O)[C@@H](NC(=O)[C@H](CCCNC(=N)N)NC(=O)[C@@H](NC(=O)[C@H](CCCCN)NC(=O)[C@@H](N)CCCCN)[C@@H](C)CC)C(C)C)C(=O)NCCC(=O)O)C(C)C [M33, KKIRVRLSA] (I: H-KKIRVRLSAKK[βAla]-OH / II: H-KKIRVRLSAK / III: H-KKIRVRLSA / IV: H-KKIRVRLSA; amide I:10-IV:C, I:11-II:C, II:10-III:C; N-terminus assumed), the MIC [1] is reported as 1.5 µM (≈ 7.02 µg/mL), the MIC [2] is reported as 1.5 µM (≈ 7.02 µg/mL) and the MIC [3] is reported as 1.5 µM (≈ 7.02 µg/mL). The MIC [4] was 0.3 µM (≈ 1.4 µg/mL), the MIC [5] was 1.5 µM (≈ 7.02 µg/mL) and the MIC [6] was 3 µM (≈ 14 µg/mL). It also gave an MIC [7] of 3 µM (≈ 14 µg/mL), an MIC [8] of 1.5 µM (≈ 7.02 µg/mL) and an MIC [9] of 1.5 µM (≈ 7.02 µg/mL). The MIC [10] was greater than 24 µM, the MIC [11] was 1.5 µM (≈ 7.02 µg/mL) and the MIC [12] was 1.5 µM (≈ 7.02 µg/mL). For the same compound, the MIC [13] was 6 µM (≈ 28.1 µg/mL), the “Antibacterial activity against E. coli TG1 cells (comparison of tetra-branched peptides, FIG. 1A)” value [14] was “improved peptide activity” and the “Animals protected from death” value ([15]; single dose 6.5 mg/Kg ip 30 minutes later) was “did not protect them from death”. For the same compound, the “Animals protected from death” value ([15]; single dose 12.5 mg/Kg ip 30 minutes later) was 25%, the “Animals protected from death” value ([15]; single dose 25 mg/Kg ip 30 minutes later) was 75% and the “Survival beyond seven days after infection” value ([15]; P. aeruginosa ATCC 27853, three doses of 5 mg/Kg (30 min, 12 h and 24 h after infection)) was 100%. The “Survival after multiple doses” value ([15]; P. aeruginosa ATCC 27853, two doses of 5 mg/Kg (30 min and 12 h after infection)) was “death was delayed” and the Apparent toxicity signs [16] was “did not produce apparent toxicity signs”.
